This is an account of results in US5093332A, “Substituted thieno(2,3-B)(1,4)thiazine-6-sulfonamides as antiglaucoma agents” (priority 1990, dated 1992).

Structures can show the parent of a compound that is named as a salt. Where two headings read alike, the source gives them in different places.

For data set [1] the following is noted: background statement; cited from earlier work.
The conditions of data set [2]: background statement; cited from earlier work. This is another data set of the same source.
For data set [3], the target named is T1, human carbonic anhydrase II (Homo sapiens, UniProt P00918). The data set is described as follows: Carbonic Anhydrase Binding Assay.
Data set [4] addresses T1, human carbonic anhydrase II. The data set is described as follows: Carbonic Anhydrase Inhibition Assay. Format: biochemical.
The mark [5] stands for this setting: in vitro binding for human carbonic anhydrase II, read-out: Ki.
Setting [6] is: in vitro inhibition of human carbonic anhydrase II, read-out: IC50.

`CC(C)(C)NC[C@H](O)COc1nsnc1N1CCOCC1` [(S)-1-tert-Butylamino-3-[(4-morpholino-1,2-5-thiadiazol-3-yl)ox-yl]-2-propanol]: the reduce intraocular pressure result in data set [1] is “found to reduce intraocular pressure”. For the same compound, in data set [2], the duration of activity result is recorded as “long duration of activity”, the local anesthetic properties result is on record as “devoid of local anesthetic properties” and the tolerance result is recorded as “minimal tolerance”.
For the compound `NS(=O)(=O)c1cc2c(s1)SCC(=O)N2` [Example 1, 2,3-Dihydro-2-oxo-6-sulfamoyl-1H-thieno[2,3-b][1,4]thiazine], in data set [3] (setting [5]), the Ki (as a rule, the dissociation constant of the complex between target and ligand, obtained from inhibition or displacement) was below 10 µM. In addition, the IC50 (commonly the concentration at which inhibition is half-maximal) in data set [4] (setting [6]) was below 10 µM.
Turning to `NS(=O)(=O)c1cc2c(s1)SC(CC(=O)O)C(=O)N2` (centres unmarked) [Example 2, (2,3-Dihydro-2-oxo-6-sulfamoyl-1H-thieno[2,3-b][1,4]thiazin-3-yl)acetic Acid], the Ki in data set [3] (setting [5]) is below 10 µM. In data set [4] (setting [6]), the concentration for half-maximal inhibition (IC50) was below 10 µM.
For the compound `NS(=O)(=O)c1cc2c(s1)S(=O)(=O)CC(=O)N2` [Example 4, 2,3-Dihydro-6-sulfamoyl-2,4,4-trioxo-1H-thieno[2,3-b][1,4]thiazine], the Ki in data set [3] was below 10 µM. This compound also yielded an IC50 in data set [4] below 10 µM.
Turning to `NS(=O)(=O)c1cc2c(s1)S(=O)(=O)C(CC(=O)O)C(=O)N2` (centres unmarked) [Example 5, (2,3-Dihydro-2,4,4-trioxo-6-sulfamoyl-1H-thieno[2,3-b][1,4]thiazin-3-yl)acetic acid], in data set [3] (setting [5]), the Ki was below 10 µM. Further, in data set [4] (setting [6]), the IC50 was below 10 µM.
Regarding `NS(=O)(=O)c1cc2c(s1)S(=O)(=O)CCN2` [Example 6, 2,3-Dihydro-4,4-dioxo-6-sulfamoyl-1H-thieno[2,3-b][1,4]thiazine], the Ki in data set [3] (setting [5]) was below 10 µM. Besides, the IC50 in data set [4] (setting [6]) was below 10 µM.
On to `NS(=O)(=O)c1cc2c(s1)S(=O)(=O)CC(=S)N2` [Example 8, 2,3-Dihydro-4,4-dioxo-6-sulfamoyl-2-thiono-1H-thieno[2,3-b][1,4]thiazine], for which the Ki in data set [3] (setting [5]) was below 10 µM. Moreover, the IC50 in data set [4] (setting [6]) is below 10 µM.
In the case of `NS(=O)(=O)c1cc2c(s1)S(=O)(=O)C(CCO)CN2` (centres unmarked) [Example 10, 3-(2-Hydroxyethyl)-2,3-dihydro-4,4-dioxo-6-sulfamoyl-1H-thieno[2,3-b][1,4]thiazine], in data set [3] (setting [5]), the Ki is below 10 µM. Also, the IC50 in data set [4] (setting [6]) was below 10 µM.
Regarding `COC(=O)CC1C(=O)Nc2cc(S(N)(=O)=O)sc2S1(=O)=O` (centres unmarked) [Example 11, Methyl (2,3-Dihydro-2,4,4-trioxo-6-sulfamoyl-1H-thieno[2,3-b][1,4]thiazin-3-yl)acetate], the Ki in data set [3] (setting [5]) was below 10 µM. Besides, the IC50 in data set [4] (setting [6]) was below 10 µM.
With `COC(=O)CC1Sc2sc(S(N)(=O)=O)cc2NC1=O` (centres unmarked) [Example 12, Methyl (2,3-Dihydro-2-oxo-6-sulfamoyl-1H-thieno[2,3-b][1,4]thiazin-3-yl)acetate], the Ki in data set [3] (setting [5]) was below 10 µM. In addition, the IC50 in data set [4] (setting [6]) was below 10 µM.
`NNC(=O)CC1C(=O)Nc2cc(S(N)(=O)=O)sc2S1(=O)=O` (centres unmarked) [Example 13, (2,3-Dihydro-6-sulfamoyl-2,4,4-trioxo-1H-thieno[2,3-b][1,4]thiazin-3-yl)acetic Acid Hydrazide]: in data set [3] (setting [5]), the Ki is below 10 µM. Besides, in data set [4] (setting [6]), the IC50 was below 10 µM.
Take `CCOC(=O)NCC1C(=O)Nc2cc(S(N)(=O)=O)sc2S1(=O)=O` (centres unmarked) [Example 14, 2,3-Dihydro-3-ethoxycarbonylaminomethyl-2,4,4-trioxo-6-sulfamoyl-1H-thieno[2,3-b][1,4]thiazine]: the inhibitory constant (Ki) in data set [3] (setting [5]) is below 10 µM. In data set [4] (setting [6]), the IC50 is below 10 µM.
As to `COCCOCCN(CCOC)C(=O)CC1C(=O)Nc2cc(S(N)(=O)=O)sc2S1(=O)=O` (centres unmarked) [Example 16, N-Methoxyethoxyethyl-N-methoxyethyl(2,3-dihydro-2,4,4-trioxo-6-sulfamoyl-1H-thieno[2,3-b][1,4]thiazin-3-yl)acetamide], the Ki in data set [3] (setting [5]) is below 10 µM. In addition, the IC50 in data set [4] (setting [6]) is below 10 µM.
With `COCCOCCN(CCOC)CCC1C(=O)Nc2cc(S(N)(=O)=O)sc2S1(=O)=O` (centres unmarked) [Example 17, 3-[2-(N-Methoxyethoxyethyl-N-methoxyethylamino)ethyl]-2,3-dihydro-2,4,4-trioxo-6-sulfamoyl-1H-thieno[2,3-b][1,4]thiazine], the Ki in data set [3] (setting [5]) is below 10 µM. For the same compound, the IC50 in data set [4] (setting [6]) was below 10 µM.
As to `CC(C)CNCCC1CNc2cc(S(N)(=O)=O)sc2S1(=O)=O` (centres unmarked) [Example 18, 3-(2-Isobutylaminoethyl)-2,3-dihydro-4,4-dioxo-6-sulfamoyl-1H-thieno[2,3-b][1,4]thiazine Hydrochloride], the Ki in data set [3] (setting [5]) was below 10 µM. Also, in data set [4] (setting [6]), the IC50 was below 10 µM.
The compound `COCCN(CCOC)CCC1CNc2cc(S(N)(=O)=O)sc2S1(=O)=O` (centres unmarked) [Example 19, 3-[2-Bis-(2-methoxyethyl)aminoethyl]-2,3-dihydro-4,4-dioxo-6-sulfamoyl-1H-thieno[2,3-b][1,4]thiazine Hydrochloride] displayed a Ki in data set [3] below 10 µM. In data set [4], the IC50 is below 10 µM.
For the compound `COCCOCCN(CCOC)CCC1CNc2cc(S(N)(=O)=O)sc2S1(=O)=O` (centres unmarked) [Example 20, 3-[2-(N-Methoxyethoxyethyl-N-methoxyethylamino)ethyl]-2,3-dihydro-4,4-dioxo-6-sulfamoyl-1H-thieno[2,3-b][1,4]thiazine Hydrochloride], in data set [3] (setting [5]), the Ki was below 10 µM. For the same compound, the IC50 in data set [4] (setting [6]) was below 10 µM.
Regarding `CNC(=O)Oc1ccc2c(c1)[C@]1(C)CCN(C)[C@@H]1N2C` [physostigmine], the reduce intraocular pressure result in data set [1] is listed as “reduce intraocular pressure”.
For the compound `CC[C@@H]1C(=O)OC[C@@H]1Cc1cncn1C` [pilocarpine], the reduce intraocular pressure entry in data set [1] is “reduce intraocular pressure”.
